Measured values as given in US20210068395A1, “METHODS OF APPLYING ONE OR MORE CERTAIN HETEROARYL-1,2,4-TRIAZOLE AND HETEROARYL-TETRAZOLE COMPOUNDS TO CONTROL DAMAGE ON PLANTS, PROPAGATION MATERIAL THEREOF, AND PLANT DERIVED PRODUCTS” (SYNGENTA CROP PROTECTION AG, priority 2018, published 2021).

How the values were obtained:
Assay type in all cases: in vivo
[1] = system: Diabrotica balteata (corn root worm); assay: Diabrotica balteata (corn root worm), sprayed maize sprouts; details: 96 h, application rate 200 ppm, L2 larvae, 4 days after infestation, read-out: control in at least one of the two categories (mortality or growth inhibition)
Method: Maize sprouts placed onto an agar layer in 24-well microtiter plates were treated with aqueous test solutions prepared from 10,000 ppm DMSO stock solutions by spraying. After drying, the plates were infested with L2 larvae (6 to 8 per well). The samples were assessed for mortality and growth inhibition in comparison to untreated samples 4 days after infestation.

[2] = system: Euschistus heros (Neotropical Brown Stink Bug); assay: Euschistus heros feeding/contact activity; details: 120 h, application rate 200 ppm, N2 nymphs on soybean leaves, 5 days after infestation, read-out: control in at least one of the two categories (mortality or growth inhibition)
Method: Soybean leaves on agar in 24-well microtiter plates were sprayed with aqueous test solutions prepared from 10,000 ppm DMSO stock solutions. After drying the leaves were infested with N2 nymphs. The samples were assessed for mortality and growth inhibition 5 days after infestation.

[3] = system: Frankliniella occidentalis (Western Flower Thrips); assay: Frankliniella occidentalis feeding/contact activity; details: foliar, 168 h, application rate 200 ppm, mixed ages on sunflower leaf discs, 7 days after infestation
Method: Sunflower leaf discs were placed on agar in 24-well microtiter plates and sprayed with aqueous test solutions prepared from 10,000 DMSO stock solutions. After drying the leaf discs were infested with a Frankliniella population of mixed ages. The samples were assessed for mortality 7 days after infestation.

[4] = system: Myzus persicae (Green Peach Aphid); assay: Myzus persicae feeding/contact activity; details: foliar, 144 h, application rate 200 ppm, sunflower leaf discs sprayed, 6 days after infestation
Method: Sunflower leaf discs were placed onto agar in a 24-well microtiter plate and sprayed with aqueous test solutions prepared from 10,000 ppm DMSO stock solutions. After drying, the leaf discs were infested with an aphid population of mixed ages. The samples were assessed for mortality 6 days after infestation.

[5] = system: Myzus persicae (Green Peach Aphid); assay: Myzus persicae feeding activity (sucrose solution, Parafilm); details: 120 h, test rate 12.5 ppm, in sucrose solution, 5 days after infestation
[6] = system: Plutella xylostella (Diamond Back Moth); assay: Plutella xylostella feeding/contact activity, 96-well artificial diet; details: 216 h, application rate 500 ppm, 9 days after infestation
[7] = system: Plutella xylostella (Diamond Back Moth); assay: Plutella xylostella feeding/contact activity, 24-well artificial diet; details: 192 h, application rate 200 ppm, 24-well artificial diet, 8 days after infestation, read-out: control in at least one of the two categories (mortality or growth inhibition)
Method: 24-well microtiter plates with artificial diet were treated with aqueous test solutions prepared from 10,000 ppm DMSO stock solutions by pipetting. After drying, Plutella eggs were pipetted through a plastic stencil onto a gel blotting paper and the plate was closed with it. The samples were assessed for mortality and growth inhibition in comparison to untreated samples 8 days after infestation.

[8] = system: Spodoptera littoralis (Egyptian Cotton Leaf Worm); assay: Spodoptera littoralis feeding/contact activity; details: foliar, 72 h, application rate 200 ppm, L1 larvae on cotton leaf discs, 3 days after infestation, read-out: control in at least one of the three categories (mortality or growth inhibition or anti-feeding)
Method: Cotton leaf discs were placed onto agar in 24-well microtiter plates and sprayed with aqueous test solutions prepared from 10,000 ppm DMSO stock solutions. After drying the leaf discs were infested with five L1 larvae. The samples were assessed for mortality, anti-feeding and growth inhibition 3 days after infestation.

[9] = system: Spodoptera littoralis (Egyptian Cotton Leaf Worm); assay: Spodoptera littoralis systemic activity (lettuce); details: 144 h, test rate 12.5 ppm, root uptake in lettuce, 6 days after infestation, read-out: control in at least one of the three categories (mortality or growth inhibition or anti-feeding)
Description: Test compounds were applied by pipette prepared from 10,000 ppm DMSO stock solutions into 24-well plates and mixed with agar. Lettuce seeds were placed onto the agar and the multi well plate was closed by another plate which contained also agar. After 7 days the compound was absorbed by the roots and the lettuce grew into the lid plate. The lettuce leaves were then cut off into the lid plate. Spodoptera eggs were pipetted through a plastic stencil onto a humid gel blotting paper and the lid plate was closed with it. The samples were assessed for mortality, anti-feeding and growth inhibition 6 days after infestation.

[10] = system: Aphis craccivora (Black Bean Aphid); assay: Aphis craccivora mixed population, contact/feeding; details: 120 h, test rate 200 ppm, pea seedlings sprayed, 5 days after treatment
Method: Pea seedlings infested with mixed aged aphid population were treated with diluted test solutions in a spray chamber. 5 days after treatment, samples were assessed for mortality.

[11] = system: Aphis craccivora (Black Bean Aphid); assay: Aphis craccivora mixed population, systemic/feeding; details: 120 h, test rate 12.5 ppm, pea seedlings in test solutions, 5 days
Method: Pea seedlings infested with mixed aged aphid population, were put into glass vials with test solutions. 5 days later, samples were assessed for mortality.

[12] = system: Carpocapsa (Cydia) Pomonella (Codling Moth); assay: Carpocapsa (Cydia) pomonella larvicide, feeding/contact; details: 336 h, test rate 50 ppm, L1 larvae on diet cubes, 14 days after infestation, read-out: control in at least one of the two categories (mortality or growth inhibition)
Method: Diet cubes coated with paraffin were sprayed with diluted test solutions in an application chamber. After drying off the treated cubes (10 replicates) were infested with 1 L1 larvae. Samples were incubated at 26-27° C. and checked 14 days after infestation for mortality and growth inhibition.

[13] = system: Nilaparvata lugens (Brown Plant Hopper); assay: Nilaparvata lugens larvicide, feeding/contact; details: 168 h, test rate 200 ppm, N3 nymphs on sprayed rice plants, 7 days after treatment, read-out: control in at least one of the two categories (mortality or growth inhibition)
Method: Rice plants were treated with the diluted test solutions in a spray chamber. After drying plants were infested with ˜20 N3 nymphs. 7 days after the treatment samples were assessed for mortality and growth inhibition.

[14] = system: Nilaparvata lugens (Brown Plant Hopper); assay: Nilaparvata lugens larvicide, systemic into water; details: 168 h, test rate 12.5 ppm, into nutritive solution of rice plants, N3 nymphs, 7 days after infestation, read-out: control in at least one of the two categories (mortality or growth inhibition)
Method: Rice plants cultivated in a nutritive solution were treated with the diluted test solutions into nourishing cultivation system. 1 day after application plants were infested with ˜20 N3 nymphs. 7 days after infestation samples were assessed for mortality and growth inhibition.

CC(c1ncnn1-c1ncccn1)N(C)C(=O)c1cc(C(F)(F)F)cc(C(F)(F)F)c1 (stereo not drawn) [Compound 1]
≥ 80%: percent control (mortality or growth inhibition) at 200 ppm [1] | percent control (mortality or growth inhibition) at 200 ppm [2] | mortality at 200 ppm [3] | mortality at 200 ppm [4] | mortality at 12.5 ppm [5] | mortality at 500 ppm [6] | percent control (mortality or growth inhibition) at 200 ppm [7] | percent control (mortality, anti-feedant effect or growth inhibition) at 200 ppm [8] | percent control (mortality, anti-feedant effect or growth inhibition) at 12.5 ppm [9] | mortality at 200 ppm [10] | mortality at 12.5 ppm [11] | percent control (mortality or growth inhibition) at 50 ppm [12] | percent control (mortality or growth inhibition) at 200 ppm [13] | percent control (mortality or growth inhibition) at 12.5 ppm [14]

CC(c1ncnn1-c1ncccn1)N(CC1CC1)C(=O)c1cc(C(F)(F)F)cc(C(F)(F)F)c1 (stereo not drawn) [Compound 3]
≥ 80%: percent control (mortality or growth inhibition) at 200 ppm [1] | percent control (mortality or growth inhibition) at 200 ppm [2] | mortality at 200 ppm [3] | mortality at 200 ppm [4] | mortality at 12.5 ppm [5] | mortality at 500 ppm [6] | percent control (mortality or growth inhibition) at 200 ppm [7] | percent control (mortality, anti-feedant effect or growth inhibition) at 200 ppm [8] | percent control (mortality, anti-feedant effect or growth inhibition) at 12.5 ppm [9] | mortality at 200 ppm [10] | mortality at 12.5 ppm [11] | percent control (mortality or growth inhibition) at 50 ppm [12] | percent control (mortality or growth inhibition) at 200 ppm [13] | percent control (mortality or growth inhibition) at 12.5 ppm [14]

CC(NC(=O)c1cc(C(F)(F)F)cc(C(F)(F)F)c1)c1ncnn1-c1ncccn1 (stereo not drawn) [Compound 4]
≥ 80%: percent control (mortality or growth inhibition) at 200 ppm [1] | percent control (mortality or growth inhibition) at 200 ppm [2] | mortality at 200 ppm [3] | mortality at 200 ppm [4] | mortality at 12.5 ppm [5] | mortality at 500 ppm [6] | percent control (mortality or growth inhibition) at 200 ppm [7] | percent control (mortality, anti-feedant effect or growth inhibition) at 200 ppm [8] | percent control (mortality, anti-feedant effect or growth inhibition) at 12.5 ppm [9] | mortality at 200 ppm [10] | mortality at 12.5 ppm [11] | percent control (mortality or growth inhibition) at 50 ppm [12] | percent control (mortality or growth inhibition) at 200 ppm [13] | percent control (mortality or growth inhibition) at 12.5 ppm [14]
